One experiment deals with T1, sEH (Homo sapiens, UniProt P34913).
T1 construct: purchased Cayman (Ann Arbor, MI, USA) 10011669
T1 sequence (P34913 1-555): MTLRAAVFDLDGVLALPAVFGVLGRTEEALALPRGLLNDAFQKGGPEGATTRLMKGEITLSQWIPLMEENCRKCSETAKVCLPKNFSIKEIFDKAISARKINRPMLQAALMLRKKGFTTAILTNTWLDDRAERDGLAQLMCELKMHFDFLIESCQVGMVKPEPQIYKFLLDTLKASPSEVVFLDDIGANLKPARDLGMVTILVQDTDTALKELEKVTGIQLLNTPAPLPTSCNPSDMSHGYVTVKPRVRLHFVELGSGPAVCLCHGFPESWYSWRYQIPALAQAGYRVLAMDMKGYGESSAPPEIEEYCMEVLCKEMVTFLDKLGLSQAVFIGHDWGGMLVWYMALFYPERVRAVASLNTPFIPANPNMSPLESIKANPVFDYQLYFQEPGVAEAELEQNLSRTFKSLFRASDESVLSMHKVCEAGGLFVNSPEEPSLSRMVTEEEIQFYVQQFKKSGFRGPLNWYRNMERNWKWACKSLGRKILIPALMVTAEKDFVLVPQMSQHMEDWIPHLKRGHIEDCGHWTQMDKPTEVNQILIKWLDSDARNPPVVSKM
The experiment can be described thus: sEH kinetic analysis (Lineweaver-Burk, secondary plot). In kind it is biochemical. As to conditions: for sEH inhibition type: Lineweaver-Burk plots; for Ki: secondary re-plot of slope vs [I], Equation (3). As to the method: To evaluate the inhibitory activity of compounds 1–3 on sEH, their hydrolysis effects on the formation of 6-methoxy-2-naphthaldehyde from (3-phenyl-oxiranyl)-acetic acid cyano-(6-methoxy-naphthalen-2-yl)-methyl ester (PHOME) were evaluated by fluorometric determination using an excitation wavelength of 330 nm and emission wavelength of 465 nm. […]. To evaluate the binding mode between sEH and the inhibitors, a kinetic study was performed using various inhibitors and substrate concentrations.
Secondary plots can be constructed from (3) Slope=km/Vmax+Km[I]/VmaxKi

Another experiment relates to tyrosinase. The experiment can be described thus: Tyrosinase inhibition. In kind it is biochemical. As to conditions: triplicate.
In experiment [1] the target is T2, Soluble epoxide hydrolases (human recombinant) (Homo sapiens, UniProt P34913).
T2 construct: purchased Cayman (Ann Arbor, MI, USA) 10011669
T2 sequence (P34913 1-555): T1 sequence (P34913 1-555)
Kind of experiment: biochemical. As to conditions: triplicate; for inhibition at 100 µM: PHOME substrate, read-out: Inhibitory Rate at 100 μM (%) sEH; for IC50: PHOME hydrolysis, pH 7.0, 37 °C, read-out: sEH IC50. As to the method: To evaluate the binding mode between sEH and the inhibitors, a kinetic study was performed using various inhibitors and substrate concentrations.
NMR spectra was obtained on Bruker Advance 600 and 300 MHz (Bruker; Rheinstetten, Germany) spectrometer. Column chromatography was performed using silica gel (Kieselgel 60; 70–230; and 230–400 mesh; Merck; Darmstadt, Germany) and YMC RP-18 resins. Thin layer chromatography (TLC) was performed using pre-coated silica-gel 60 F254 and RP-18 F254S plates (both 0.25 mm; Merck; Darmstadt, Germany). Spots were visualized by spraying with 10% aqueous H2SO4 solution followed by heating. Methanol; acetonitrile (Sigma-Aldrich; St. Louis, MO, USA) and trifluoroacetic acid (Alfa Aesar; Ward Hill, MA, USA) used in this study were of HPLC grade and the distilled water was prepared by the ultra-pure water manufacturing device (Optimos; Sinhan Science Tech, Daejeon, Korea). […] The quantitative analysis for three selaginellins was carried out on Optimapak C18 (250 mm × 4.6 mm I.D.; 5 μm) column.

Molecules are shown by their SMILES.

What is called Ki is a measure of affinity in units of concentration, obtained from inhibition or displacement. By IC50 is commonly meant the midpoint of a concentration-inhibition curve. In the case of `O=C1C=CC(=C(c2ccc(O)cc2)c2c(C#Cc3ccc(O)cc3)cccc2-c2ccc(O)cc2)C=C1` [Compound 1, selaginellin A], on sEH, the sEH inhibition type entry is given as “Noncompetitive” and the Ki turned out to be 2.9 µM. In addition, in the experiment with tyrosinase, the “Inhibitory Rate at 100 μM (%) Tyrosinase” value was found to be 36.2 ± 2.1%. Further, in experiment [1], the inhibition at 100 µM is 92.5 ± 0.8% and the IC50 was 3.1 ± 0.1 µM.

On to `Cc1ccc(-c2ccc(O)cc2)c(C(=C2C=CC(=O)C=C2)c2ccc(O)cc2)c1C#Cc1ccc(O)cc1` [Compound 2, selaginellin B], for which, at sEH, the sEH inhibition type entry is “Noncompetitive” and the Ki amounted to 6.8 µM. Further, the “Inhibitory Rate at 100 μM (%) Tyrosinase” value with tyrosinase stood at 32.5 ± 1.5%. In experiment [1], the inhibition at 100 µM was 89.3 ± 2.1% and the IC50 came to 8.2 ± 2.2 µM.

Turning to `O=C1C=CC(=C(c2ccc(O)cc2)c2c(-c3ccc(O)cc3)ccc(CO)c2C#Cc2ccc(O)cc2)C=C1` [Compound 3, selaginellin], at sEH, the sEH inhibition type entry is “Noncompetitive” and the inhibition constant Ki is 1.8 µM. The “Inhibitory Rate at 100 μM (%) Tyrosinase” value in the experiment on tyrosinase is reported as 40.1 ± 3.2%. Also, in experiment [1], the inhibition at 100 µM was found to be 94.5 ± 5% and the IC50 turned out to be 4.2 ± 0.2 µM.
